Results from ChEMBL document CHEMBL4265876, “Natural Products with Heteroatom-Rich Ring Systems” (J Nat Prod, 2017).
Converted amounts (≈) assume the structure as drawn.

Assays:
[1] = Antioxidant activity of the compound; format: functional
[2] = Inhibition of protein kinase A (unknown origin); set-up: species or system Homo sapiens
Escherichia coli [3] = assay: Antibacterial activity against Escherichia coli assessed as inhibition zone at 50 ug/disk; format: functional; details: read-out: IZ
Ruegeria atlantica = assay: […] activity against Ruegeria atlantica assessed as inhibition zone at 50 ug/disk; format: functional; details: read-out: IZ
Mucor hiemalis = assay: Antifungal activity against Mucor hiemalis assessed as inhibition zone at 50 ug/disk; format: functional; details: read-out: IZ
V79 = assay: Cytotoxicity against chinese hamster V79 cells; format: cell-based; details: Cricetulus griseus
Staphylococcus aureus [4] = assay: Antibacterial activity against Staphylococcus aureus assessed as inhibition zone at 50 ug/disk; format: functional; details: read-out: IZ
Saccharomyces cerevisiae = assay: Antifungal activity against Saccharomyces cerevisiae assessed as inhibition zone at 50 ug/disk; format: functional; details: read-out: IZ
HCT-15 = assay: Cytotoxicity against human HCT15 cells; format: functional; details: read-out: ED50 (the source's name)
XF498 = assay: Cytotoxicity against human XF498 cells; format: functional; details: read-out: ED50 (the source's name)
SK-MEL-2 = assay: Cytotoxicity against human SK-MEL-2 cells; format: functional; details: read-out: ED50 (the source's name)
SK-OV-3 = assay: Cytotoxicity against human SKOV3 cells; format: functional; details: read-out: ED50 (the source's name)
A549 [5] = assay: Cytotoxicity against human A549 cells; format: functional; details: read-out: ED50 (the source's name)
Trypanosoma cruzi [6] = assay: Antitrypanosomal activity against Trypanosoma cruzi Y by MTT assay; format: functional, organism-based
Trypanosoma cruzi [7] = assay: Antitrypanosomal activity against Trypanosoma cruzi Y intracellular amastigotes; format: functional, organism-based
L1210 [8] = assay: Cytotoxicity against mouse L1210 cells; format: functional, cell-based
Human alphaherpesvirus 1 = assay: Antiviral activity against HSV1; format: functional, organism-based
Candida albicans [9] = assay: Antifungal activity against Candida albicans YO109; format: functional
Candida albicans [10] = assay: Antifungal activity against Candida albicans SC5314; format: functional
Cryptococcus neoformans = assay: Antifungal activity against Cryptococcus neoformans; format: functional
Trichophyton rubrum = assay: Antifungal activity against Trichophyton rubrum; format: functional
L1210 [11] = assay: Cytotoxicity against mouse L1210 cells assessed as decrease in cell viability at 5 ug; format: functional
Micrococcus luteus = assay: Antibacterial activity against Micrococcus luteus assessed as inhibition zone at 20 ug; format: functional; details: read-out: IZ
Fusarium oxysporum = assay: Antifungal activity against Fusarium oxysporum assessed as inhibition zone at 100 ug/hole; format: functional
Cercospora sojina = assay: Antifungal activity against Cercospora sojina assessed as inhibition zone at 100 ug/hole; format: functional
Aspergillus niger = assay: Antifungal activity against Aspergillus niger assessed as inhibition zone at 100 ug/hole; format: functional
Ehrlich = assay: Antitumor activity against mouse Ehrlich carcinoma cells xenografted in white mouse assessed as growth inhibition at 50 mg/kg, ip for 7 days; format: functional; details: 168 h, read-out: GI
K562 = assay: Cytotoxicity against human K562 cells assessed as decrease in cell viability after 48 hrs by MTT assay; format: functional, cell-based; details: K562, 48 h
A549 [12] = assay: Cytotoxicity against human A549 cells assessed as decrease in cell viability after 48 hrs by MTT assay; format: functional, cell-based; details: A549, 48 h
HGC-27 = assay: Growth inhibition of human HGC27 cells after 48 hrs by MTT assay; format: functional, cell-based; details: HGC-27, 48 h
Klebsiella sp. = assay: Antimicrobial activity against Klebsiella sp.; format: functional
Candida albicans [13] = assay: Antifungal activity against Candida albicans; format: functional
Citrobacter = assay: Antimicrobial activity against Citrobacter; format: functional
Escherichia coli [14] = assay: Antibacterial activity against Escherichia coli; format: functional
Enterococcus faecalis = assay: Antimicrobial activity against Streptococcus faecalis; format: functional
Proteus sp. = assay: Antimicrobial activity against Proteus sp.; format: functional; details: Proteus sp. (in: enterobacteria)
Staphylococcus aureus [15] = assay: Antibacterial activity against Staphylococcus aureus; format: functional
Enterobacter sp. = assay: Antimicrobial activity against Enterobacter sp.; format: functional
[16] = tested on: Trichophyton mentagrophytes; assay: Antimicrobial activity against Trichophyton mentagrophytes; format: functional
Salmonella sp. = assay: Antimicrobial activity against Salmonella sp.; format: functional
Influenza A virus = assay: Antiviral activity against Influenza A virus (A/Hanfang/359/95(H3N2)); format: functional, organism-based

## CC[C@H](C)C1=C(O)[N@+]2([O-])Oc3ccc(-c4c(O)c(O)c(-c5ccc(O)cc5)c(OC(C)=O)c4OC(C)=O)cc3O[C@@]2([C@@H](C)CC)C(=O)N1OC
[1]
  IC50: 25 µM

## COc1c(OC)c2c(c(CCN(C)C)c1SC)SSS2
[2]
  IC50: > 25 µg/mL
Escherichia coli [3]
  zone of inhibition at 50 µg/disc: 10.3 to 32.4 mm
Ruegeria atlantica
  zone of inhibition at 50 µg/disc: 10.3 to 32.4 mm
Mucor hiemalis
  zone of inhibition at 50 µg/disc: 10.3 to 32.4 mm
V79
  IC50: 0.19 µM
Staphylococcus aureus [4]
  zone of inhibition at 50 µg/disc: 10.3 to 32.4 mm
Saccharomyces cerevisiae
  zone of inhibition at 50 µg/disc: 10.3 to 32.4 mm

## CC(C)CCCCC1=CN=CN2COC(=O)N12
HCT-15
  EC50: 0.6 µg/mL (≈ 2.53 µM)
XF498
  EC50: 0.7 µg/mL (≈ 2.95 µM)
SK-MEL-2
  EC50: 0.76 µg/mL (≈ 3.2 µM)
SK-OV-3
  EC50: 0.36 µg/mL (≈ 1.52 µM)
A549 [5]
  EC50: 0.62 µg/mL (≈ 2.61 µM)

## C=C(C)C1CNC(NCC=C(C)C)=NO1 (configuration not stated)
Trypanosoma cruzi [6]
  IC50: 93 µg/mL (≈ 444 µM)
Trypanosoma cruzi [7]
  IC50: 27 µg/mL (≈ 129 µM)

## COc1cc(CCN(C)C)c2c(c1O)SSSSS2 [ISOLISSOCLINOTOXIN B]
V79
  IC50: 0.25 µM
L1210 [8]
  IC50: 0.64 µM

## C=C[C@H](O)Cc1nsc(C2=CCCS[C@@]23C(=O)Nc2ccccc23)n1
Human alphaherpesvirus 1
  IC50: 25.9 µM

## CC[C@H]1CC/C(=C2\C(=O)O[C@H](C)C2=O)O1
Candida albicans [9]
  MIC80: 8 µg/mL (≈ 38.1 µM)
Candida albicans [10]
  MIC80: 32 µg/mL (≈ 152 µM)
Cryptococcus neoformans
  MIC80: 16 µg/mL (≈ 76.1 µM)
Trichophyton rubrum
  MIC80: 64 µg/mL (≈ 304 µM)

## CN[C@@H]1CSCON2CCc3c([nH]c4ccc(O)c(Br)c34)[C@H]12
L1210 [11]
  Activity: 100%
Micrococcus luteus
  zone of inhibition at 20 µg/disc: 41 mm

## CC(=O)O[C@H]1CC[C@]23C[C@]24CC[C@]2(C)[C@@H]([C@H](C)CCC5OOC(C)(C)O5)CC[C@@]2(C)[C@@H]4CC[C@H]3C1(C)C (some centres not stated)
Fusarium oxysporum
  inhibition zone (IZ): 2 mm
Cercospora sojina
  inhibition zone (IZ): 2 mm
Aspergillus niger
  inhibition zone (IZ): 2 mm

## COc1[nH]nc2nncnc12
Ehrlich
  inhibition in vivo at 50 mg/kg: 83%

## N[C@@H]1CSCON2CCc3c([nH]c4ccc(O)c(Br)c34)[C@H]12 [EUDISTOMIN E]
L1210 [11]
  Activity: 100%
Micrococcus luteus
  zone of inhibition at 20 µg/disc: 46 mm

## CC1=C(c2ccccc2)N(C)NC(=O)N1
K562
  IC50: 66.9 µM
A549 [12]
  IC50: 21.8 µM

## Oc1ccc(Cc2nsc(Cc3ccc(O)cc3)n2)cc1
HGC-27
  IC50: 172 µM

## COc1c(O)cc(CCN)c2c1SSSSS2
Klebsiella sp.
  MIC: 0.1 to 0.6 µg/mL (≈ 0.307 to 1.84 µM)
Candida albicans [13]
  MIC: 40 µg/mL (≈ 123 µM)
Citrobacter
  MIC: 0.1 to 0.6 µg/mL (≈ 0.307 to 1.84 µM)
Escherichia coli [14]
  MIC: 0.1 to 0.6 µg/mL (≈ 0.307 to 1.84 µM)
Enterococcus faecalis
  MIC: 0.1 to 0.6 µg/mL (≈ 0.307 to 1.84 µM)
Proteus sp.
  MIC: 0.1 to 0.6 µg/mL (≈ 0.307 to 1.84 µM)
L1210 [8]
  IC50: 1 µg/mL
Staphylococcus aureus [15]
  MIC: 0.1 to 0.6 µg/mL (≈ 0.307 to 1.84 µM)
Enterobacter sp.
  MIC: 0.1 to 0.6 µg/mL (≈ 0.307 to 1.84 µM)
[16]
  MIC: 20 µg/mL (≈ 61.4 µM)
Salmonella sp.
  MIC: 0.1 to 0.6 µg/mL (≈ 0.307 to 1.84 µM)

## CC[C@H](C)C1=C(O)[N@@+]2([O-])Oc3ccc(-c4c(O)c(O)c(-c5ccc(O)cc5)c(OC(C)=O)c4OC(C)=O)cc3O[C@@]2([C@@H](C)CC)C(=O)N1OC
[1]
  IC50: 29.1 µM

## C=C[C@@H](O)Cc1nsc(C2=CCCS[C@]23C(=O)Nc2ccccc23)n1
Human alphaherpesvirus 1
  IC50: 33.3 µM
Influenza A virus
  IC50: 33.3 µM
